Values of other authors as cited in US20230104874A1, “HERBAL PREPARATION FOR PREVENTION AND TREATMENT OF HELICOBACTER PYLORI INFECTION” (HerbElixa DOO BEOGRAD- NOVI BEOGRAD, priority 2020, published 2023).

What was measured:
Gram negative bacteria = conditions: Korona-Glowniak et al. 2020
H. pylori = conditions: literature

SMILES	antibacterial activity against Gram negative bacteria (Gram negative bacteria)	anti-H. pylori activity in vitro (H. pylori)
Cc1ccc(C(C)C)cc1 [p-cymene]	no antibacterial activity	–
CC1=CCC(C(C)C)=CC1 [γ-terpinene]	no antibacterial activity	–
Cc1ccc(C(C)C)c(O)c1 [thymol]	–	high bactericidal activity
Cc1ccc(C(C)C)cc1O [carvacrol]	–	bactericidal activity
